Laboratory results reported in US20150010933A1, “Novel Screening Methods” (The Trustees of the University of Pennsylvania, priority 2012, published 2015).
pIC50: −log10 of the molar value.

Experiments:
Assay type in all cases: biochemical
[1] = molecular target: ATP synthesis activity of M. smegmatis membranes; assay: ATP synthesis assay with M. smegmatis membranes (luciferase/luciferin luminescence, 384 well plate); details: 10 μg/ml M. smegmatis membrane, 1 mM NADH, 25 μM ADP, 10 mM K-Pi, pH 7.0, total volume 20 μL; read-out: IC50, ATP synthesis activity normalized to the positive control
[2] = tested on: NADH oxidase activity of M. smegmatis membranes; assay: NADH oxidase activity assay with M. smegmatis membranes; details: 0.2 mM NADH, 10 μg/ml membrane, pH 7.0
Experimental: FIG. 10 is a graph illustrating the effect of TMC207 on the NADH oxidase activity of M. smegmatis membranes. The assay was carried out in the presence of various concentrations of TMC207. The reactions contained 0.2 mM NADH and 10 μg/ml membrane in 50 mM Hepes/2 mM MgCl2 (pH 7.0) buffer.

[3] = tested on: ΔpH across M. smegmatis membranes; assay: ΔpH across the membranes monitored with pH sensitive fluorescent dye ACMA; details: 1 μM ACMA, 10 μg/ml M. smegmatis membrane, initiated with 1 mM NADH, pH 7.0
Experimental: FIG. 11 is a graph illustrating the effect of TMC207 on ΔpH across the membranes. ΔpH was monitored by using a pH sensitive fluorescent dye 9-amino-6-chloro-2-methoxyaridine (ACMA). The reactions contained 1 μM ACMA, 10 μg/ml M. smegmatis membrane in 5 mM Hepes/2 mM MgCl2 buffer (pH 7.0). The reaction was initiated by addition of 1 mM NADH (open symbols) and NADH was omitted in negative controls (closed symbols). Fluorescence was measured by a plate reader with 420 nm for excitation and 510 nm for emission wavelength.

Question: Which results are given for `COc1nc2ccc(Br)cc2cc1[C@@H](c1ccccc1)[C@@](O)(CCN(C)C)c1cccc2ccccc12` [TMC207, (1R,2S)-1-(6-bromo-2-methoxy-3-quinolyl)-4-dimethylamino-2-(1-naphthyl)-1-phenyl-butan-2-ol]?
Answer: pIC50 [1]: 9.83; inhibition of NADH oxidase activity ([2]; at 10 μM): did not inhibit; inhibition of NADH oxidase activity ([2]; at only high concentrations): marginal inhibition; effect on ΔpH across the membrane [3]: did not affect
